“Also recorded” adds a separate entry of the source. Marks after values point to notes of the source that are not given here.
Legend:
[1] = system: isolated ischemic rat hearts; parameters: method as in PMID 9228191; settings: cited from earlier work
[2] = system: post-reperfusion arrhythmia of isolated rat heart; assay: Antiarrhythmic activity in the post-reperfusion model in isolated rat heart; settings: for Extrasystoles (%) / Fibrillations (%) / Tachycardia (%) / Arrhythmia Severity Index: reperfusion; for Extrasystoles (%) / Fibrillations (%) / Tachycardia (%): % occurrence; for Arrhythmia Severity Index: Bernauer scale
Protocol: Hearts form Wistar rats were isolated and immersed in Chenoweth–Koelle solution (120 mM NaCl; 5 mM KCl; 2.2 mM MgCl2; […]; 2.4 mM CaCl2; 10 mM glucose). Hearts were perfused according to the Langendorff model under a constant pressure of 70 cm H2O (6.87 kPa) with a solution at 37 °C, pH 7.4, constantly oxygenated (O2/CO2, 19:1) using the MyoHEART Langendorff System-900MH (Danish Myo Technology, Hinnerup, Denmark), which monitored the ECG. After 20 min stabilization period, acute myocardial ischemia was induced locally by installing a clamp on the left coronary artery (ischemic period). After 15 min, the clamp was removed, and ECG changes were monitored for 30 min (reperfusion period). The tested compound was added to the perfusion solution 15 min before coronary artery clamping. The point scale described by Bernauer was used to assess the antiarrhythmic activity in this arrhythmia model. The occurrence of a specific type of heart rhythm disturbance during the reperfusion period was scored according to the following scale: • occurrence of less than 10 extrasystoles—1 point; • occurrence of more than 10 extrasystoles—2 points; • presence of ventricular tachycardia—3 points; • presence of fibrillation—4 points.

[3] = system: aconitine-induced arrhythmia in rats; assay: Prophylactic antiarrhythmic activity in aconitine-induced arrhythmia; format: in vivo, rat
[4] = target: Ca2+ channel (L, verapamil site); assay: Radioligand binding assay for Ca2+ channel ([3H]-D888); parameters: species or system rat; settings: for IC50: rat cortex tissue, [3H]-D888
Protocol: The radioligand binding studies for K^+ and Ca^2+ channels were performed commercially by Eurofins Cerep (Celle l’Evescault, France) using testing procedures described elsewhere. […]

[5] = system: arrhythmia caused by cardiac ischemia in dogs; parameters: method as in PMID 7528295; settings: dogs after myocardial infarction; cited from earlier work
[6] = target: α1A receptor; parameters: method as in PMID 25813897; settings: antagonist; cited from earlier work
[7] = system: adrenaline-induced arrhythmia in rats; assay: Prophylactic antiarrhythmic activity in adrenaline-induced arrhythmia; format: in vivo, rat; settings: for ED50: Rattus norvegicus, prophylactic, iv 15 min before adrenaline 20 μg/kg, Litchfield and Wilcoxon, limits in brackets, read-out: ED50 (a dose producing a 50% inhibition of ventricular contractions); for Blocks (%) / Bradycardia (%) / Extrasystoles (%) / Mortality (%): adrenaline 20 μg/kg iv, % occurrence
[8] = target: T1, potassium hERG channel (Homo sapiens, UniProt Q12809); assay: Radioligand binding assay for K+ channel hERG ([3H]-dofetilide, HEK-293 cells)
T1 construct: host or cells: HEK-293
Protocol: The radioligand binding studies for K^+ and Ca^2+ channels were performed commercially by Eurofins Cerep (Celle l’Evescault, France) using testing procedures described elsewhere [68, 69].

[9] = system: normal ECG in rats; assay: Effect on normal electrocardiogram in rats; format: in vivo, rat; parameters: PQ / QRS / QTc / QT / Rate (heart rate): unit not given here; settings: 5 mg/kg iv; for QTc: Bazzett's formula
Protocol: To eliminate the influence of the tested derivative on normal electrocardiogram (ECG), the experiment was performed. ECG tests were carried out with Aspel ASCARD apparatus (standard II lead, with the tape speed 50 mm/s and voltage calibration 1 Mv = 1 cm). The ECG was recorded prior and 5, 10, 15 min after iv administration of tested compound. The influence on PQ, QT, QTc interval, QRS complex and heart rate (RR) was defined. The Bazzett’s formula: QTc = QT/√RR was used to calculate QTc.

[10] = system: calcium chloride-induced arrhythmia in rats; assay: Prophylactic antiarrhythmic activity in calcium chloride-induced arrhythmia; format: in vivo, rat
[11] = target: α1 receptors; parameters: method as in PMID 25813897; settings: cited from earlier work
[12] = target: T2, β1-adrenergic receptors (Rattus norvegicus, UniProt P18090); assay: Radioligand binding assay for β1-adrenergic receptors ([3H]-CGP-12177); settings: rat cortex tissue
T2 construct: from tissue; host or cells: rat cortex
Protocol: Radioligand binding assay was performed on tissue rat cortex. […] In order to measure the unspecific binding 1 μM of propranolol was applied. Microplate was covered with a sealing tape, mixed and incubated for 60 minutes at 37 °C. The incubation was terminated by rapid filtration through GF/B filter mate. Ten rapid washes with 200 µL 50 mM Tris buffer (4 °C, pH 7.6) were completed using 96-well FilterMate harvester (PerkinElmer, Boston, MA, USA). The filter mates were dried at 37 °C in forced air fan incubator and then solid scintillator MeltiLex was melted on filter mates at 90 °C for 4 min. […] Data were fitted to a one-site curve-fitting equation with Prism 6 (GraphPad Software, San Diego, CA, USA) and Ki values were estimated from the Cheng−Prusoff equation [51].

[13] = system: isolated rat heart; assay: Effect on normal ECG of isolated rat heart (Langendorff)
Protocol: Hearts form Wistar rats were isolated and immersed in Chenoweth-Koelle solution (120 mM NaCl; 5 mM KCl; 2.2 mM MgCl2; […]; 2.4 mM CaCl2; 10 mM glucose). Hearts were perfused according to the Langendorff model under a constant pressure of 70 cm H2O (6.87 kPa) with a solution at 37 °C, pH 7.4, constantly oxygenated (O2/CO2, 19:1) using the MyoHEART Langendorff System-900MH (Danish Myo Technology, Hinnerup, Denmark), which simultaneously monitored the ECG. After 20-min stabilization period, the tested compound was administered directly to the nutrient fluid every 15 min at increasing concentrations of […]. The influence on PQ, QTc interval, QRS complex and heart rate (RR) was assessed. The Bazzett’s formula: QTc = QT/√RR was used to calculate QTc.

[14] = target: α2 receptors; parameters: method as in PMID 25813897; settings: cited from earlier work
[15] = system: blood pressure in normotensive rats; parameters: method as in PMID 25813897; settings: doses 5, 1, and 0.5 mg/kg; cited from earlier work
[16] = target: α1B receptor; parameters: method as in PMID 25813897; settings: antagonist; cited from earlier work
[17] = system: adrenaline-induced arrhythmia in rats; assay: Therapeutic antiarrhythmic activity in adrenaline-induced arrhythmia; format: in vivo, rat
Protocol: The experiments were carried out according to the method described by Szekeres and Papp. The heart rhythm disturbances were evoked by intravenous administration of adrenaline (20 µg/kg) to anesthetized rats (thiopental, 75 mg/kg). The tested compound was administered iv immediately after the injection of adrenaline, at dose 5 mg/kg. The ECG was recorded during the first 2 min and in the 5th, 10th, and 15th min after the adrenaline injection. […] The criterion of antiarrhythmic activity was the decrease or complete absence of extrasystoles, atrioventricular blocks and bradycardia in the ECG recording in comparison with the control group.

[18] = dose 0.03 mg/kg iv 15 min before
[19] = dose 0.06 mg/kg iv 15 min before
[20] = dose 0.125 mg/kg iv 15 min before
[21] = dose 0.25 mg/kg iv 15 min before
[22] = dose 0.5 mg/kg iv 15 min before
[23] = 0 min (prior to administration)
[24] = calcium chloride 140 mg/kg iv, dose 5 mg/kg iv 15 min before, % occurrence
[25] = aconitine 20 μg/kg iv, dose 5 mg/kg iv 15 min before, % occurrence
[26] = 5 mg/kg iv immediately after adrenaline, % occurrence

T1 sequence (Q12809 whole entry): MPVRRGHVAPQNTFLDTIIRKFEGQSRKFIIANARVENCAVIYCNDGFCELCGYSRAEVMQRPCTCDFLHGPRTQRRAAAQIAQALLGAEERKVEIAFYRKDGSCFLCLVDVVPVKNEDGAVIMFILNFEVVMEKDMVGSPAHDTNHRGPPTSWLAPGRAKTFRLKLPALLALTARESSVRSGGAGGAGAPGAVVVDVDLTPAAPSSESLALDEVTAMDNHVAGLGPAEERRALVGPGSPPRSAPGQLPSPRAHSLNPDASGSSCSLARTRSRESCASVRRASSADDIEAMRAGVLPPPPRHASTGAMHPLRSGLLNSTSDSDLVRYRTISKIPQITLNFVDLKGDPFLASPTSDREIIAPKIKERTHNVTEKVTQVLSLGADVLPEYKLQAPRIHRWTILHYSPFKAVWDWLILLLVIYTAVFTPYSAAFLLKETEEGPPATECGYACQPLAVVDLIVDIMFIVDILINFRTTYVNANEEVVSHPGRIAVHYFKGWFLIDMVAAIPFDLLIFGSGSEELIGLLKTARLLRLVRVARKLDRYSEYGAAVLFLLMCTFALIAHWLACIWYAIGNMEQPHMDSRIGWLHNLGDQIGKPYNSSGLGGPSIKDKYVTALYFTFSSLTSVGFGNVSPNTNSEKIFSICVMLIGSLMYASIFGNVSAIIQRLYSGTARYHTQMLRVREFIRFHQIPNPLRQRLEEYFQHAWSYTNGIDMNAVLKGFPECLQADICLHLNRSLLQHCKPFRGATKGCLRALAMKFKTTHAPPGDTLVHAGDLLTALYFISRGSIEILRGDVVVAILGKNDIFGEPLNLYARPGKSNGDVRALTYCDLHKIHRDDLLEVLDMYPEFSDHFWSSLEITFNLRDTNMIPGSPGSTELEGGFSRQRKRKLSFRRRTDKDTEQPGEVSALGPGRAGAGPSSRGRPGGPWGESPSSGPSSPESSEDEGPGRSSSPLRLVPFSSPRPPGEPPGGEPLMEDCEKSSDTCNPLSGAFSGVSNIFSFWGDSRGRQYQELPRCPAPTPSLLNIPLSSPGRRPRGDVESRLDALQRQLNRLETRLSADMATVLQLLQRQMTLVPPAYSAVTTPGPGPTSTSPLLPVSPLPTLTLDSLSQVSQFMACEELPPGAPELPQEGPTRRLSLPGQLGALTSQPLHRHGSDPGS
T2 sequence (P18090 whole entry): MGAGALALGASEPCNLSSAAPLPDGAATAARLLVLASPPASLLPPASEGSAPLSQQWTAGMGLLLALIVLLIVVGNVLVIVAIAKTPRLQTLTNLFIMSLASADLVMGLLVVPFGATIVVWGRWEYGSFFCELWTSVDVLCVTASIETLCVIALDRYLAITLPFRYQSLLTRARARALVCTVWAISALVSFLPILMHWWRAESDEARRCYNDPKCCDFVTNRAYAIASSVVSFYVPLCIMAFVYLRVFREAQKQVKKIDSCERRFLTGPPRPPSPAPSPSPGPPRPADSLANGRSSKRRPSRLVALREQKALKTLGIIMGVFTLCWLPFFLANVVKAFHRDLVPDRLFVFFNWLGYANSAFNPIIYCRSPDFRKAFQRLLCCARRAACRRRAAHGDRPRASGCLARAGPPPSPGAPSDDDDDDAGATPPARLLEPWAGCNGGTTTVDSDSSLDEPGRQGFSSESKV

SMILES: Cc1ccc(N(CC2=NCCN2)c2cccc(O)c2)cc1 [phentolamine]
- reduction of the incidence of ventricular fibrillation / arrhythmias [1]: 32%

SMILES: COc1cccc(OC)c1OCCNCC1COc2ccccc2O1 (centres unmarked) [WB 4101]
- reduction of the incidence of ventricular fibrillation / arrhythmias [1]: 49%

SMILES: CCCNCC(O)COc1ccccc1C(=O)CCc1ccccc1 (centres unmarked) [Propafenone, reference compound]
- Extrasystoles (%) ([2]; concentration 10^−11 M): 100%
- Fibrillations (%) ([2]; concentration 10^−11 M): 33.3%
- Tachycardia (%) ([2]; concentration 10^−11 M): 66.7%
- Arrhythmia Severity Index ([2]; concentration 10^−11 M): 6.7
- Blocks (%) ([3]; rat, in vivo, 5 mg/kg): 83.3%
- Bradycardia (%) ([3]; rat, in vivo, 5 mg/kg): 100%
- Extrasystoles (%) ([3]; rat, in vivo, 5 mg/kg): 66.7%
- Fibrillations (%) ([3]; rat, in vivo, 5 mg/kg): 33.3%
- Mortality (%) ([3]; rat, in vivo, 5 mg/kg): 16.6%

SMILES: CCCCc1oc2ccccc2c1C(=O)c1cc(I)c(OCCN(CC)CC)c(I)c1 [Amiodarone]
- Extrasystoles (%) ([2]; concentration 10^−9 M): 100%
- Fibrillations (%) ([2]; concentration 10^−9 M): 66.7%
- Tachycardia (%) ([2]; concentration 10^−9 M): 100%
- Arrhythmia Severity Index ([2]; concentration 10^−9 M): 7.7

SMILES: COc1ccc(CCN(C)CCCC(C#N)(c2cc(OC)c(OC)c(OC)c2)C(C)C)cc1OC [D-600, reference compound]
- IC50 [4]: 0.037 µM

SMILES: COc1cc2nc(N3CCN(C(=O)c4ccco4)CC3)nc(N)c2cc1OC [prazosin]
- animals in which arrhythmia caused by cardiac ischemia was prevented [5]: 78%
- reduction of the incidence of ventricular fibrillation / arrhythmias [1]: 83%

SMILES: C=C[C@H]1C[N@@]2CC[C@H]1C[C@@H]2[C@@H](O)c1ccnc2ccc(OC)cc12 [Quinidine]
- Extrasystoles (%) ([2]; concentration 10^−6 M): 83.3%
- Fibrillations (%) ([2]; concentration 10^−6 M): 0%
- Tachycardia (%) ([2]; concentration 10^−6 M): 50%
- Arrhythmia Severity Index ([2]; concentration 10^−6 M): 2.3 *

SMILES: Cl.O=C1CCCN1CCCCN1CCN(c2ccccc2Cl)CC1 [S-75, 1-(4-(4-(2-chlorophenyl)piperazin-1-yl)butyl)pyrrolidin-2-one hydrochloride]
- EC50 [6]: 138 ± 21.9 nM
- ED50 [7]: 0.05 mg/kg
- Blocks (%) [7, 18]: 100%
- Bradycardia (%) [7, 18]: 100%
- Extrasystoles (%) [7, 18]: 100%
- Mortality (%) [7, 18]: 33.3%
- Blocks (%) [7, 19]: 50%
- Bradycardia (%) [7, 19]: 100%
- Extrasystoles (%) [7, 19]: 83.3%
- Mortality (%) [7, 19]: 0%
- Blocks (%) [7, 20]: 33.3%
- Bradycardia (%) [7, 20]: 33.3%
- Extrasystoles (%) [7, 20]: 66.7%
- Mortality (%) [7, 20]: 50%
- Blocks (%) [7, 21]: 50%
- Bradycardia (%) [7, 21]: 16.7%
- Extrasystoles (%) [7, 21]: 66.7%
- Mortality (%) [7, 21]: 0%
- Blocks (%) [7, 22]: 33.3%
- Bradycardia (%) [7, 22]: 0%
- Extrasystoles (%) [7, 22]: 16.7%
- Mortality (%) [7, 22]: 0%
- IC50 ([8]; HEK-293 cells, [3H]-dofetilide): 29.3 µM
- affinity toward potassium channel hERG, times lower than terfenadine ([8]; vs terfenadine): 1172 times
- influence on QRS [9]: no influence
- influence on QT [9]: no influence
- influence on QTc [9]: no influence; also recorded: did not prolong
- PQ [9, 23]: 46.44 ± 1.352
- QRS [9, 23]: 33.78 ± 1.384
- QT [9, 23]: 81.57 ± 1.356
- Rate (heart rate) [9, 23]: 310.8 ± 17.07
- QTc [9, 23]: 182.9 ± 4.805
- PQ ([9]; 5 min): 47.00 ± 1.537
- QRS ([9]; 5 min): 35.56 ± 1.701
- QT ([9]; 5 min): 81.53 ± 1.812
- Rate (heart rate) ([9]; 5 min): 307.9 ± 18.93
- QTc ([9]; 5 min): 192.3 ± 6.176
- PQ ([9]; 10 min): 49.78 ± 1.042
- QRS ([9]; 10 min): 33.89 ± 1.628
- QT ([9]; 10 min): 82.47 ± 2.186
- Rate (heart rate) ([9]; 10 min): 287.8 ± 22.94
- QTc ([9]; 10 min): 189.3 ± 9.543
- PQ ([9]; 15 min): 52.11 ± 2.061
- QRS ([9]; 15 min): 37.22 ± 1.637
- QT ([9]; 15 min): 83.90 ± 1.730
- Rate (heart rate) ([9]; 15 min): 284.0 ± 23.50
- QTc ([9]; 15 min): 190.9 ± 11.46
- decrease of the heart rate ([9]; after 10 min): 7.4%
- decrease of the heart rate ([9]; after 15 min): 8.6%
- prolongation of the PQ interval ([9]; after 15 min): 12.2%
- activity in the post-reperfusion model of arrhythmia [2]: did not show the activity
- Extrasystoles (%) ([2]; concentration 10^−10 M): 100%
- Fibrillations (%) ([2]; concentration 10^−10 M): 100%
- Tachycardia (%) ([2]; concentration 10^−10 M): 100%
- Blocks (%) [10, 24]: 100%
- Bradycardia (%) [10, 24]: 100%
- Extrasystoles (%) [10, 24]: 100%
- Fibrillations (%) [10, 24]: 66.7%
- Mortality (%) [10, 24]: 83.3%
- activity in calcium chloride-induced arrhythmia ([10]; prophylactic, rats): no activity
- pKi α1 receptors [11]: 7.3
- β1 (pKi [nM]) [12]: did not bind
- prolongation of the PQ interval ([13]; 10^−8 mol/L): 15.1%
- prolongation of the RR interval ([13]; 10^−8 mol/L): 10.5%
- effect on QRS complex ([13]; 10^−10–10^−8 mol/L): not affecting; also recorded: did not affect
- effect on QTc interval ([13]; 10^−10–10^−8 mol/L): not affecting; also recorded: did not affect
- IC50 [4]: 0.757 µM
- affinity for L-type calcium channels, times lower than D-600 ([4]; vs reference D-600): 20 times
- pKi α2 receptors [14]: 6.01
- effect on blood pressure [15]: significantly decreased the blood pressure
- EC50 [16]: 2.53 ± 0.5 nM
- Blocks (%) [3, 25]: 100%
- Bradycardia (%) [3, 25]: 100%
- Extrasystoles (%) [3, 25]: 100%
- Fibrillations (%) [3, 25]: 100%
- Mortality (%) [3, 25]: 100%
- activity in aconitine-induced arrhythmia ([3]; prophylactic, rats): no activity

SMILES: COc1ccccc1OCCNCC(O)COc1cccc2[nH]c3ccccc3c12 (centres unmarked) [Carvedilol, reference compound]
- ED50 [7]: 0.36 mg/kg
- Blocks (%) [7, 21]: 100%
- Bradycardia (%) [7, 21]: 16.6%
- Extrasystoles (%) [7, 21]: 100%
- Mortality (%) [7, 21]: 66.7%
- decrease of the number of adrenaline-induced extrasystoles ([17]; 5 mg/kg iv immediately after adrenaline 20 µg/kg, compared to the vehicle-treated group): 95.2%
- Blocks (%) [17, 26]: 83.3%
- Mortality (%) [17, 26]: 16.7%

From PMC8625052, “The Antiarrhythmic Activity of Novel Pyrrolidin-2-one Derivative S-75 in Adrenaline-Induced Arrhythmia” (Pharmaceuticals, 2021)
